Laboratory results taken from patent publication US12685733B2, “Indole molecules and use thereof in the inhibition of DNA polymerases” (BioVentures, LLC, priority 2019, dated 2026).
Read-outs that look alike come from different tables or passages of the source.

How the values were obtained:
hpol η = target: T1, hpol η (Homo sapiens, UniProt Q9Y253); experiment: Fluorescence-based DNA polymerase activity assay; type: biochemical; details: for IC50: 95% confidence interval in parentheses, read-out: IC50 for inhibition of hpol η
T1 construct: hpol η (residues 1-437); made in house
T1 sequence (Q9Y253 1-437): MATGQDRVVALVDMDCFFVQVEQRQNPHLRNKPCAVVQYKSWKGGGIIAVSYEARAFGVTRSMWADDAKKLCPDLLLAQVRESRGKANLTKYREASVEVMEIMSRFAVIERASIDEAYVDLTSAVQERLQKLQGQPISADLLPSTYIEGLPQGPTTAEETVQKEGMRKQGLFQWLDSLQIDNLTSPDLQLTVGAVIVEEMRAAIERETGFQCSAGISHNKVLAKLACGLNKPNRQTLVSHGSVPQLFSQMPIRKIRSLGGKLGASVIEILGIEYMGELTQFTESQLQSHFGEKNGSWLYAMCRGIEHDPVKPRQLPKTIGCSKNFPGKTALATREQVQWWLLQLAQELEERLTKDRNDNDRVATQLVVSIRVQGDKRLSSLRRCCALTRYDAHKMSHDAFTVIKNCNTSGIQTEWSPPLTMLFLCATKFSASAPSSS
Excerpt: The impact of IAG-10 on the affinity of hpol κ for DNA was an important insight and one that had not been observed previously with MK-886. It was reasoned that decreasing the concentration of either enzyme or DNA, might affect the IC50 value by shifting the equilibrium away from the formation of binary hpol c: DNA complex and toward the enzyme-inhibitor complex. To investigate this idea, the concentration of hpol and p/t-DNA was varied in the reaction mixture and measured the IC50 value for IAG-10. Decreasing the enzyme and DNA in solution led to a dramatic decrease in the IC50 for IAG-10 against hpol κ (FIG. 4A). […] Then, similar experiments were performed with hpol η by varying the concentration of enzyme and DNA in the reaction mixture an determining the IC50 value for IAG-10-mediated inhibition.

Tb pol I = target: T2, Tb pol I (Mycobacterium tuberculosis, UniProt P9WNU5); experiment: Fluorescence-based polymerase assay, other pol families; type: biochemical; details: 10 μM; 10 nM Tb pol I (A-family)
T2 construct: made in house
T2 sequence (P9WNU5 whole entry): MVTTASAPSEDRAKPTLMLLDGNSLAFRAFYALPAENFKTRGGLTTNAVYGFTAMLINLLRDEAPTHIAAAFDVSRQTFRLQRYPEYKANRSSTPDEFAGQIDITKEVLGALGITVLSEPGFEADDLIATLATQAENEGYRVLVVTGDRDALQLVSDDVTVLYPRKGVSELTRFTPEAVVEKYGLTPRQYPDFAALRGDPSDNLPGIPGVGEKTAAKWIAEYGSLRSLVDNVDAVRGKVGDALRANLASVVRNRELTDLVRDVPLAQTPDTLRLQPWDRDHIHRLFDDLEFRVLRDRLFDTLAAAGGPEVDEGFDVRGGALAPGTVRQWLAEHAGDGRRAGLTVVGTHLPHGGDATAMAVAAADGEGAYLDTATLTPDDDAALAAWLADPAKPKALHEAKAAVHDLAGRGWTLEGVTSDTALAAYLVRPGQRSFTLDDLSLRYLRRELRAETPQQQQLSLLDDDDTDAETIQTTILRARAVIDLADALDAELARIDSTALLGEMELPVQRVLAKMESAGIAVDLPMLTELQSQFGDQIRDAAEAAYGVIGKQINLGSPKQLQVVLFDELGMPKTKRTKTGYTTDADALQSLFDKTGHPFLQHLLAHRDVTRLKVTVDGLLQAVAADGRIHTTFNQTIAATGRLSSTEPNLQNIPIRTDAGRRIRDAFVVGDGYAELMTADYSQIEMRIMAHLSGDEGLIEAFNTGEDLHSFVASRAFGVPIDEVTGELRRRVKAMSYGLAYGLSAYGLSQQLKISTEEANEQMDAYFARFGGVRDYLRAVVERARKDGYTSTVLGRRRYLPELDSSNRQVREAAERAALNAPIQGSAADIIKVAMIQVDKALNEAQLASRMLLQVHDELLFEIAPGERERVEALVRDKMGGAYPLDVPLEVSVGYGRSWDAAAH

[1] = test system: hpol κ-proficient HAP-1 cells; experiment: Alkaline comet assay; type: cell-based, human
Protocol: (§1) To evaluate DNA damage upon treatment with TMZ and the compound IAG-10, the alkaline comet assay was performed using protocol as described by the manufacturer (Trevigen, Gaithersburg, MD). Briefly, 100 000 HAP-1 cells per well for both the hpol κ-proficient and hpol κ-deficient cell types were plated in a 12-well dish. Both types of cells were treated with 0.5 μM of IAG-10 alone or in combination with TMZ (100 μM) for 1 h. Cells treated with DMSO served as the control. Following treatment, cells were harvested, washed in ice-cold Ix PBS, and counted. The cells were then suspended in low-melting agarose to a final dilution of 200-300 cells per well on the comet slide. The comet slides with wells coated with cell/agarose mixture were incubated at 4° C. in the dark to allow the agarose to solidify before immersing the slides in proprietary lysis solution for 1 h. Each comet slide was then immersed in an alkaline unwinding solution (200 mM NaOH, 1 mM EDTA) for 20 min at RT before placing them in the electrophoresis unit in […] of the same solution. Samples were electrophoresed at 21 V for 30 min at 4° C. The comet slides were washed and dried completely at 37° C. before staining with SYBR Gold diluted in TE buffer (10 mM Tris-HCl, pH 7.5, 1 mM EDTA). The comets were visualized using an EVOS FL Auto microscope (Life Technologies, Carlsbad, CA) set at 10× magnification and were scored using CometScore software. All experiments were repeated in 3 biological replicates with at least 60 comets scored for each condition. Results were plotted using Graphpad Prism, as the percent of DNA in the tail of each comet, and statistical significance between treatment conditions was calculated using one-way ANOVA with the Bonferroni posthoc correction.

[2] = test system: hpol κ-deficient HAP-1 cells; experiment: Alkaline comet assay; type: cell-based, human
Protocol: as §1

MCF7 cells = experiment: BrdU ssDNA / propidium iodide flow cytometry; type: cell-based; details: PNR-7-48 0.5 μM + Mirin 100 μM, 48 hours
Protocol: MCF7 cells were plated in 60 mm dishes at a confluency of 300,000 cells per dish and incubated overnight. Cells were treated the next day with BrdU (10 μM). The compounds were diluted in DMSO and added to the media at a final concentration of PNR-7-48 (0.5 μM) and Mirin (100 μM). The final concentration of DMSO was 0.1% (v/v). After 48 hours of treatment, media was removed and cells were washed in 1×PBS and trypsinized. Cells were then resuspended in media and centrifuged at 1500 rpm (calculate relative centrifugal force, RCF) for 5 minutes. The supernatant was removed, and again cells were washed and centrifuged. The supernatant was discarded and cells were resuspended in ice-cold 70% (v/v) ethanol prepared in 1×PBS while being vortexed. After overnight fixing at 4° C., cells were vortexed and centrifuged at 3000 rpm (RCF) for 10 minutes. Ethanol was removed leaving residual amounts for cell resuspension by vortexing. Fixed cells were stained with fluorescent anti-BrdU antibodies (FITC mouse anti-BrdU kit; 556028; BD) without prior acid treatment to detect only ssDNA. To confirm that the experimental cells had incorporated BrdU, aliquots of all nuclei were also denatured using HCL and then neutralized with sodium borate before staining with the anti-BrdU antibody. […] Samples were analyzed using the BD FACSCalibur Flow Cytometer in the UAMS Flow Cytometry Core. […]

hpol λ = target: T3, hpol λ (Homo sapiens, UniProt Q9UGP5); experiment: Fluorescence-based polymerase assay, other pol families; type: biochemical; details: 10 μM; 10 nM hpol λ (X-family)
T3 construct: hpol λ, residues 1-325; gift of Dr. Miguel Garcia-Diaz (Stony Brook University)
T3 sequence (Q9UGP5 242-575 limits assumed): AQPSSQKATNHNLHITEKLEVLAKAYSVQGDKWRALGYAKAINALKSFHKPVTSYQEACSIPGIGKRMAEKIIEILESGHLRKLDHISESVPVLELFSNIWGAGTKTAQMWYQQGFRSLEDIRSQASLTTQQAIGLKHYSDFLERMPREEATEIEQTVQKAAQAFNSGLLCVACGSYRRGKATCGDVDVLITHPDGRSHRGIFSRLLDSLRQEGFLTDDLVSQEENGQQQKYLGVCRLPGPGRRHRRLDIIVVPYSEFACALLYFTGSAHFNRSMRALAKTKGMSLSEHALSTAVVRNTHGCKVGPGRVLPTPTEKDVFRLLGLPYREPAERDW

[3] = 100 μM TMZ + 0.5 μM IAG-10, 1 h
[4] = single agent, 1 h: 0.5 μM IAG-10 or 100 μM TMZ

Structure (SMILES): Cl.[H]/N=C(\N)NN=Cc1cn(C(=O)c2cccc3ccccc23)c2ccc(Cl)cc12 [IAG-10, (E)-2-((1-(1-naphthoyl)-5-chloro-1H-indol-3-y1)methylene)hydrazine-1-carboximidamide hydrochloride]
- IC50 (hpol η; 2 nM DNA): 22.5 µM
- IC50 (hpol η; 50 nM DNA): 14.3 µM
- Michaelis constant, hpol η (hpol η; steady-state kinetics with increasing inhibitor concentration): linear increase
- turnover number (kcat), hpol η (hpol η; steady-state kinetics with varying inhibitor concentration): no measurable change
- polymerase activity relative to DMSO control (Tb pol I): only hpol κ activity was inhibited
- DNA damage (percent DNA in the tail), combination [1, 3]: increased even further
- DNA damage (percent DNA in the tail) compared to control [1, 4]: approximately twofold
- DNA damage (percent DNA in the tail), combination [2, 3]: did not increase further
- DNA damage (percent DNA in the tail) compared to control [2, 4]: did not increase DNA damage over control
- cell death (sub-G1 cells) (MCF7 cells): increases
- ssDNA gap formation (BrdU+ cells) (MCF7 cells): increases
- polymerase activity relative to DMSO control (hpol λ): only hpol κ activity was inhibited
